Experimental data published in PubChem BioAssay (NCI).
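These data come from cells grown in 96-well plates and exposed to compound for 48 hours at five concentrations. TGI denotes the concentration required for complete inhibition of growth.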

Tests used:
Assay in all cases: NCI-60 cell line screen, 48 h
[1] = test system: CCRF-CEM leukemia
[2] = test system: A498 renal
[3] = test system: M14 melanoma
[4] = test system: SK-MEL-2 melanoma
[5] = test system: MCF7 breast
[6] = test system: NCI-H460 lung
[7] = test system: HT29 colon
[8] = test system: HOP-92 NSCLC
[9] = test system: K-562 leukemia
[10] = test system: EKVX NSCLC
[11] = test system: OVCAR-8 ovarian
[12] = test system: HS 578T breast
[13] = test system: MOLT-4 leukemia
[14] = test system: MALME-3M melanoma
[15] = test system: SNB-19 CNS
[16] = test system: NCI-H23 lung
[17] = test system: MDA-MB-435
[18] = test system: MDA-MB-231 breast
[19] = test system: SF-268 CNS
[20] = test system: LOX IMVI melanoma
[21] = test system: TK-10 renal
[22] = test system: SR leukemia
[23] = test system: SF-295 CNS
[24] = test system: SW-620 colon
[25] = test system: SN12C renal
[26] = test system: SNB-75 CNS
[27] = test system: SK-MEL-5 melanoma
[28] = test system: T-47D breast
[29] = test system: HCT-15 colon
[30] = test system: PC-3 prostate
[31] = test system: MDA-N
[32] = test system: COLO 205 colon
[33] = test system: HL-60(TB) leukemia
[34] = test system: 786-0 renal
[35] = test system: UO-31 renal
[36] = test system: DU-145 prostate
[37] = test system: SF-539 CNS
[38] = test system: ACHN renal
[39] = test system: NCI/ADR-RES ovarian
[40] = test system: KM12 colon
[41] = test system: OVCAR-3 ovarian
[42] = test system: HOP-62 NSCLC
[43] = test system: UACC-257 melanoma
[44] = test system: OVCAR-5 ovarian
[45] = test system: HCC-2998 colon
[46] = test system: SK-OV-3 ovarian
[47] = test system: SK-MEL-28 melanoma
[48] = test system: CAKI-1 renal
[49] = test system: U251 CNS
[50] = test system: NCI-H226 lung
[51] = test system: UACC-62 melanoma
[52] = test system: NCI-H522 lung
[53] = test system: RXF 393 renal
[54] = test system: A549 NSCLC
[55] = test system: HCT-116 colon
[56] = test system: OVCAR-4 ovarian
[57] = test system: BT-549 breast

**Q.** With COc1cccc2c1-c1ccccc1[C@H](Nc1ccccc1)[C@@]2(C)O as the molecule, how does the TGI [1] read?
**A.** The TGI was 50.9 µM.

**Q.** And the TGI [2]?
**A.** The TGI was 22 µM.

**Q.** And the TGI [3]?
**A.** The TGI was 14.8 µM.

**Q.** And the TGI [4]?
**A.** Its TGI is 19.9 µM.

**Q.** What about the TGI [5] of the same molecule?
**A.** Its TGI is 17.2 µM.

**Q.** And the TGI [6]?
**A.** Its TGI is 14 µM.

**Q.** And the TGI [7]?
**A.** The TGI was 14 µM.

**Q.** And the TGI [8]?
**A.** Its TGI is 26 µM.

**Q.** And the TGI [9]?
**A.** The TGI was greater than 100 µM.

**Q.** And the TGI [10]?
**A.** Its TGI is 25.1 µM.

**Q.** What about the TGI [11] of the same molecule?
**A.** Its TGI is 31 µM.

**Q.** And the TGI [12]?
**A.** The TGI was 32 µM.

**Q.** What about the TGI [13] of the same molecule?
**A.** The TGI was greater than 100 µM.

**Q.** What about the TGI [14] of the same molecule?
**A.** The TGI was 22.1 µM.

**Q.** And the TGI [15]?
**A.** The TGI was 19.3 µM.

**Q.** What about the TGI [16] of the same molecule?
**A.** The TGI was 23.2 µM.

**Q.** And the TGI [17]?
**A.** The TGI was 6.14 µM.

**Q.** What about the TGI [18] of the same molecule?
**A.** Its TGI is 24.3 µM.

**Q.** What about the TGI [19] of the same molecule?
**A.** Its TGI is 21.1 µM.

**Q.** And the TGI [20]?
**A.** The TGI was 28 µM.

**Q.** And the TGI [21]?
**A.** The TGI was 22.1 µM.

**Q.** What about the TGI [22] of the same molecule?
**A.** Its TGI is 22.9 µM.

**Q.** What about the TGI [23] of the same molecule?
**A.** Its TGI is 15.8 µM.

**Q.** What about the TGI [24] of the same molecule?
**A.** The TGI was 30 µM.

**Q.** And the TGI [25]?
**A.** Its TGI is 16.8 µM.

**Q.** And the TGI [26]?
**A.** Its TGI is 6.85 µM.

**Q.** What about the TGI [27] of the same molecule?
**A.** Its TGI is 14.1 µM.

**Q.** What about the TGI [28] of the same molecule?
**A.** The TGI was 30.2 µM.

**Q.** And the TGI [29]?
**A.** Its TGI is 18.9 µM.

**Q.** What about the TGI [30] of the same molecule?
**A.** The TGI was 19 µM.

**Q.** What about the TGI [31] of the same molecule?
**A.** Its TGI is 5.25 µM.

**Q.** And the TGI [32]?
**A.** Its TGI is 10.4 µM.

**Q.** What about the TGI [33] of the same molecule?
**A.** The TGI was 26.8 µM.

**Q.** And the TGI [34]?
**A.** Its TGI is 20.2 µM.

**Q.** And the TGI [35]?
**A.** Its TGI is 16.9 µM.

**Q.** And the TGI [36]?
**A.** Its TGI is 17.7 µM.

**Q.** And the TGI [37]?
**A.** Its TGI is 11.6 µM.

**Q.** And the TGI [38]?
**A.** Its TGI is 21.6 µM.

**Q.** What about the TGI [39] of the same molecule?
**A.** The TGI was 15.2 µM.

**Q.** What about the TGI [40] of the same molecule?
**A.** The TGI was 15.6 µM.

**Q.** And the TGI [41]?
**A.** The TGI was 7.85 µM.

**Q.** And the TGI [42]?
**A.** The TGI was 19 µM.

**Q.** And the TGI [43]?
**A.** Its TGI is 19.7 µM.

**Q.** And the TGI [44]?
**A.** Its TGI is 28.2 µM.

**Q.** What about the TGI [45] of the same molecule?
**A.** Its TGI is 19.7 µM.

**Q.** And the TGI [46]?
**A.** Its TGI is 21.3 µM.

**Q.** And the TGI [47]?
**A.** Its TGI is 26.7 µM.

**Q.** And the TGI [48]?
**A.** Its TGI is 17.5 µM.

**Q.** What about the TGI [49] of the same molecule?
**A.** The TGI was 16.3 µM.

**Q.** And the TGI [50]?
**A.** The TGI was 15.6 µM.

**Q.** What about the TGI [51] of the same molecule?
**A.** Its TGI is 21.6 µM.

**Q.** What about the TGI [52] of the same molecule?
**A.** Its TGI is 8.49 µM.

**Q.** What about the TGI [53] of the same molecule?
**A.** The TGI was 11 µM.

**Q.** And the TGI [54]?
**A.** Its TGI is 22.2 µM.

**Q.** What about the TGI [55] of the same molecule?
**A.** Its TGI is 15 µM.

**Q.** And the TGI [56]?
**A.** The TGI was 25.7 µM.

**Q.** And the TGI [57]?
**A.** The TGI was 23.3 µM.
